Experimental data published in patent publication US20260297070A1, “CYCLIC [COMPOUND LEFT OUT] WRN INHIBITORS” (Nimbus Wadjet, Inc., priority 2023, published 2026).

The molecules below were run against T1, human Werner helicase (WRN-BV08, Uniprot Q14191, amino acids 517-1235 with L1074F point mutation) (Homo sapiens, UniProt Q14191, L1074F) (assay: WRN (BV08) ADP-Glo Assay). Conditions: 0.15 nM WRN, 5 μM ATP, 0.1 nM DNA duplex, 15 min preincubation, 60 min at 25° C., pH 7.5, 1% DMSO; read-out: ADP-Glo_hWRN_IC50.
T1 construct: Uniprot Q14191, amino acids 517-1235 with L1074F point mutation; TEV-cleavable 8×His (C, cleaved yes); made in house; host or cells: Sf9 insect cells (baculovirus)
Format: biochemical
Summary of the method: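 Percent inhibition was normalised to DMSO (max) and 20 μM NSC-617145 (min) controls from ADP-Glo luminescence, and IC50 values came from a four-parameter fit. The reaction ran 60 min at 25 °C with 0.15 nM WRN, 5 μM ATP and 0.1 nM duplex DNA.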

T1 sequence (Q14191 with tags, fused parts or gaps L1074F limits assumed): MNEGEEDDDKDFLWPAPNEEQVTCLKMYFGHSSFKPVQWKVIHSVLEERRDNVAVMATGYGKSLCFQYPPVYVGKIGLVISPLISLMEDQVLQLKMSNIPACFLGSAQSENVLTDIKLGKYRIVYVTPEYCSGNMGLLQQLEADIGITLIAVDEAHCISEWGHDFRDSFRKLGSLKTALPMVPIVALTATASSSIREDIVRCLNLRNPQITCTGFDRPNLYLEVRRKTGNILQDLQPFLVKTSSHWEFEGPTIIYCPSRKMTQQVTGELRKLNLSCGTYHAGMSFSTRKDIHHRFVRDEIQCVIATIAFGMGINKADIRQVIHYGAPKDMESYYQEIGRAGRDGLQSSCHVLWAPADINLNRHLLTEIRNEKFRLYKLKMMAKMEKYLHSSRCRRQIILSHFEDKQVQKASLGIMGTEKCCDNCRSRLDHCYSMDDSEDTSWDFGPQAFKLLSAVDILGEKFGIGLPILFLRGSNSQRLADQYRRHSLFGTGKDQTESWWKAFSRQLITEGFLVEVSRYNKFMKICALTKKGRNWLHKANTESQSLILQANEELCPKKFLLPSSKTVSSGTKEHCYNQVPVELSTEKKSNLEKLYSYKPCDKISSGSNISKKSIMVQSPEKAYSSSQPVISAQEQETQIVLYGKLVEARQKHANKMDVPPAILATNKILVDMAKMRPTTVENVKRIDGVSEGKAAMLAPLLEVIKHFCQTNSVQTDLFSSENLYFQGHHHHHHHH

Compound	IC50
COc1cc(CN(C(=O)C(c2ccc(-c3ccc(F)c(F)c3)cc2F)n2nccc2C)[C@@H]2C=CS(=O)(=O)C2)ccn1 (single isomer, unassigned) [I-749, (2R*)-N-[(3R)-1,1-dioxo-2,3-dihydro-1lambda6-thiophen-3-yl]-N-[(2-methoxypyridin-4-yl)methyl]-2-(5-methyl-1H-pyrazol-1-yl)-2-{3,3′,4′-trifluoro-[1,1′-biphenyl]-4-yl}acetamide]	0.5 to 5 µM
CC(C)(O)c1cc(CN(C(=O)C2CNc3cc(-c4ccc(F)cc4)ccc32)C2C=CS(=O)(=O)C2)ccn1 (stereo not shown) [I-98, N-(1,1-dioxo-2,3-dihydro-1lambda6-thiophen-3-yl)-6-(4-fluorophenyl)-N-{[2-(2-hydroxypropan-2-yl)pyridin-4-yl]methyl}-2,3-dihydro-1H-indole-3-carboxamide]	0.5 to 5 µM
O=C(CCc1cnc2n1CCCCC2)N(Cc1ccncc1)C1C=CS(=O)(=O)C1 (stereo not shown) [I-560, N-(1,1-dioxo-2,3-dihydro-1lambda6-thiophen-3-yl)-3-{5H,6H,7H,8H,9H-imidazo[1,2-a]azepin-3-yl}-N-[(pyridin-4-yl)methyl]propanamide]	> 50 µM
COC(C(=O)N(Cc1ccnc(C(C)(C)O)c1)C1C=CS(=O)(=O)C1)c1ccc(S(F)(F)(F)(F)F)cc1 (single isomer, unassigned) [I-664, (2R*)-N-[(3R**)-1,1-dioxo-2,3-dihydro-1lambda6-thiophen-3-yl]-N-{[2-(2-hydroxypropan-2-yl)pyridin-4-yl]methyl}-2-methoxy-2-[4-(pentafluoro-lambda6-sulfanyl)phenyl]acetamide]	< 0.5 µM
CC(C(=O)N(Cc1ccnc(C(C)(C)O)c1)C1C=CS(=O)(=O)C1)n1cc(-c2cc(F)c(F)c(F)c2)cn1 (single isomer, unassigned) [I-776, (2R*)-N-[(3R**)-1,1-dioxo-2,3-dihydro-1lambda6-thiophen-3-yl]-N-{[2-(2-hydroxypropan-2-yl)pyridin-4-yl]methyl}-2-[4-(3,4,5-trifluorophenyl)-1H-pyrazol-1-yl]propanamide]	< 0.5 µM
COc1cc(CN(C(=O)Cn2cc(-c3ccc(F)c(F)c3)cn2)[C@@H]2C=CS(=O)(=O)C2)ccn1 [I-598, 2-[4-(3,4-difluorophenyl)-1H-pyrazol-1-yl]-N-[(3R)-1,1-dioxo-2,3-dihydro-1lambda6-thiophen-3-yl]-N-[(2-methoxypyridin-4-yl)methyl]acetamide]	< 0.5 µM
CC(C)(O)c1cc(CN(C(=O)C(OCC(F)F)c2ccc(-c3ccc(F)c(F)c3)cc2F)[C@@H]2C=CS(=O)(=O)C2)ccn1 (single isomer, unassigned) [I-813]	< 0.5 µM
COc1cc(CN(C(=O)C(c2ccc(-c3ccc(F)c(F)c3)cc2F)n2cc(C(F)F)cn2)[C@@H]2C=CS(=O)(=O)C2)ccn1 (stereo partly drawn) [I-705, 2-[4-(difluoromethyl)-1H-pyrazol-1-yl]-N-[(3R)-1,1-dioxo-2,3-dihydro-1lambda6-thiophen-3-yl]-N-[(2-methoxypyridin-4-yl)methyl]-2-{3,3′,4′-trifluoro-[1,1′-biphenyl]-4-yl}acetamide]	0.5 to 5 µM
CNC(=O)C(C(=O)N(Cc1ccnc(OC)c1)[C@@H]1C=CS(=O)(=O)C1)c1ccc(-c2ccc(F)c(F)c2)cc1F (single isomer, unassigned) [I-693, (2R*)-N′-[(3R)-1,1-dioxo-2,3-dihydro-1lambda6-thiophen-3-yl]-N′-[(2-methoxypyridin-4-yl)methyl]-N-methyl-2-{3,3′,4′-trifluoro-[1,1′-biphenyl]-4-yl}propanediamide]	< 0.5 µM
COC(C(=O)N(Cc1nc(C2CC2)cs1)C1C=CS(=O)(=O)C1)c1ccc(S(F)(F)(F)(F)F)cc1 (stereo not shown) [I-74, N-[(4-cyclopropyl-1,3-thiazol-2-yl)methyl]-N-(1,1-dioxo-2,3-dihydro-1lambda6-thiophen-3-yl)-2-methoxy-2-[4-(pentafluoro-lambda6-sulfanyl)phenyl]acetamide]	< 0.5 µM
CN(C)C(=O)C(C(=O)N(Cc1ccnc(C(C)(C)O)c1)C1C=CS(=O)(=O)C1)c1ccc(S(F)(F)(F)(F)F)cc1 (stereo not shown) [I-192, N′-(1,1-dioxo-2,3-dihydro-1lambda6-thiophen-3-yl)-N′-{[2-(2-hydroxypropan-2-yl)pyridin-4-yl]methyl}-N,N-dimethyl-2-[4-(pentafluoro-lambda6-sulfanyl)phenyl]propanediamide]	0.5 to 5 µM

Other lines, results leading:

IC50	Compound
> 50 µM	O=C(Cn1cc(Cl)cn1)N(Cc1ccncc1)C1C=CS(=O)(=O)C1 (stereo not shown) [I-427, 2-(4-chloro-1H-pyrazol-1-yl)-N-(1,1-dioxo-2,3-dihydro-1lambda6-thiophen-3-yl)-N-[(pyridin-4-yl)methyl]acetamide]
> 50 µM	O=C(C(C1CC1)n1cc(-c2ccccc2)cn1)N(Cc1ccncc1)C1C=CS(=O)(=O)C1 (stereo not shown) [I-435, 2-cyclopropyl-N-(1,1-dioxo-2,3-dihydro-1lambda6-thiophen-3-yl)-2-(4-phenyl-1H-pyrazol-1-yl)-N-[(pyridin-4-yl)methyl]acetamide]
10 to 50 µM	O=C(Cc1ccc(C(F)(F)F)cc1Br)N(Cc1ccncc1)C1C=CS(=O)(=O)C1 (stereo not shown) [I-293, 2-[2-bromo-4-(trifluoromethyl)phenyl]-N-(1,1-dioxo-2,3-dihydro-1lambda6-thiophen-3-yl)-N-[(pyridin-4-yl)methyl]acetamide]
< 0.5 µM	COc1cc(CN(C(=O)Cn2ccc(-c3ccc(F)cc3)cc2=O)[C@@H]2C=CS(=O)(=O)C2)ccn1 [I-660, N-[(3R)-1,1-dioxo-2,3-dihydro-1lambda6-thiophen-3-yl]-2-[4-(4-fluorophenyl)-2-oxo-1,2-dihydropyridin-1-yl]-N-[(2-methoxypyridin-4-yl)methyl]acetamide]
< 0.5 µM	CC(C)(O)c1cc(CN(C(=O)Cc2ccc(-c3ccc(F)cc3)cc2F)C2C=CS(=O)(=O)C2)ccn1 (stereo not shown) [I-52, 2-{3,4′-difluoro-[1,1′-biphenyl]-4-yl}-N-(1,1-dioxo-2,3-dihydro-1lambda6-thiophen-3-yl)-N-{[2-(2-hydroxypropan-2-yl)pyridin-4-yl]methyl}acetamide]
> 50 µM	O=C(Cc1ccc(-n2cccc2)cc1)N(C1C=CS(=O)(=O)C1)C(CO)c1ccccc1 (stereo not shown) [I-525, N-(1,1-dioxo-2,3-dihydro-1lambda6-thiophen-3-yl)-N-(2-hydroxy-1-phenylethyl)-2-[4-(1H-pyrrol-1-yl)phenyl]acetamide]
> 50 µM	COc1ccc2c(CC(=O)N(Cc3ccncc3)C3C=CS(=O)(=O)C3)c[nH]c2c1 (stereo not shown) [I-541, N-(1,1-dioxo-2,3-dihydro-1lambda6-thiophen-3-yl)-2-(6-methoxy-1H-indol-3-yl)-N-[(pyridin-4-yl)methyl]acetamide]
> 50 µM	COc1cc(CN(C(=O)Cc2ccc(S(F)(F)(F)(F)F)cc2)[C@H]2C=CS(=O)(=O)C2)ccn1 [I-311, N-[(3S)-1,1-dioxo-2,3-dihydro-1lambda6-thiophen-3-yl]-N-[(2-methoxypyridin-4-yl)methyl]-2-[4-(pentafluoro-lambda6-sulfanyl)phenyl]acetamide]
0.5 to 5 µM	O=C(Cn1cc(-c2ccccc2)cn1)N(Cc1ccncc1)C1C=CS(=O)(=O)C1 (single isomer, unassigned) [I-133]
10 to 50 µM	O=C(Cc1ccc(-n2cccc2)cc1)N(Cc1cc(F)ccc1F)C1C=CS(=O)(=O)C1 (stereo not shown) [I-278, N-[(2,5-difluorophenyl)methyl]-N-(1,1-dioxo-2,3-dihydro-1lambda6-thiophen-3-yl)-2-[4-(1H-pyrrol-1-yl)phenyl]acetamide]
> 50 µM	O=C(Cc1ccc(-c2ccc(F)cc2)cc1C(F)(F)F)N(Cc1ccncc1)C1C=CS(=O)(=O)C1 (stereo not shown) [I-465, N-(1,1-dioxo-2,3-dihydro-1lambda6-thiophen-3-yl)-2-[4′-fluoro-3-(trifluoromethyl)-[1,1′-biphenyl]-4-yl]-N-[(pyridin-4-yl)methyl]acetamide]
0.5 to 5 µM	Cc1cccn1-c1ccc(CC(=O)N(Cc2ccc(C(=O)O)cc2)C2C=CS(=O)(=O)C2)c(F)c1 (stereo not shown) [I-138, 4-{[N-(1,1-dioxo-2,3-dihydro-1lambda6-thiophen-3-yl)-2-[2-fluoro-4-(2-methyl-1H-pyrrol-1-yl)phenyl]acetamido]methyl}benzoic acid]
> 50 µM	O=C(C1CC(c2ccc(F)cc2)C1)N(Cc1ccncc1)C1C=CS(=O)(=O)C1 (stereo not shown) [I-614, N-(1,1-dioxo-2,3-dihydro-1lambda6-thiophen-3-yl)-3-(4-fluorophenyl)-N-[(pyridin-4-yl)methyl]cyclobutane-1-carboxamide]
> 50 µM	O=C(Cc1ccc(-n2cccc2CCO)cc1)N(Cc1ccccc1)C1C=CS(=O)(=O)C1 (stereo not shown) [I-383, N-benzyl-N-(1,1-dioxo-2,3-dihydro-1lambda6-thiophen-3-yl)-2-{4-[2-(2-hydroxyethyl)-1H-pyrrol-1-yl]phenyl}acetamide]
10 to 50 µM	O=C(Cc1ccc(-c2ccccc2)cc1)N(Cc1ccncc1)C1C=CS(=O)(=O)C1 (stereo not shown) [I-323, 2-{[1,1′-biphenyl]-4-yl}-N-(1,1-dioxo-2,3-dihydro-1lambda6-thiophen-3-yl)-N-[(pyridin-4-yl)methyl]acetamide]
10 to 50 µM	O=C(Cc1ccc(-n2cccc2)cc1)N(Cc1c(F)cccc1F)C1C=CS(=O)(=O)C1 (stereo not shown) [I-294, N-[(2,6-difluorophenyl)methyl]-N-(1,1-dioxo-2,3-dihydro-1lambda6-thiophen-3-yl)-2-[4-(1H-pyrrol-1-yl)phenyl]acetamide]
0.5 to 5 µM	CC(O)c1cc(CN(C(=O)Cc2ccc(-n3cccc3)cc2)C2C=CS(=O)(=O)C2)ccn1 (stereo not shown) [I-169, N-(1,1-dioxo-2,3-dihydro-1lambda6-thiophen-3-yl)-N-{[2-(1-hydroxyethyl)pyridin-4-yl]methyl}-2-[4-(1H-pyrrol-1-yl)phenyl]acetamide]
